Source: patent US6872745B2, “Antipicornaviral compounds and compositions, their pharmaceutical uses, and materials for their synthesis” (Agouron Pharmaceuticals, Inc., priority 2000, dated 2005)

How the values were obtained:
[1] = test system: HRV-14; assay: Antirhinoviral H1-HeLa cell culture assay (XTT cell protection); assay type: cell-based, human rhinovirus; settings: Rhinovirus B, HRV14, H1-HeLa, HRV-14, H1-HeLa cells
Experimental: (§1) In this cell protection assay, the ability of compounds to protect cells against HRV infection was measured by the XTT dye reduction method, which is described in Weislow et al., J. Natl. Cancer Inst. (1989), vol. 81, 577-586. H1-HeLa cells were infected with HRV-14 at a multiplicity of infection (m.o.i.) of 0.13 (virus particles/cell) or mock-infected with medium only. Infected or mock-infected cells were resuspended at 8×10^5 cells per ml, and incubated with appropriate concentrations of the compounds to be tested. Two days later, XTT/PMS was added to test plates and the amount of formazan produced was quantified spectrophotometrically at 450/650 nm. The EC50 value was calculated as the concentration of compound that increased the percentage of formazan production in compound-treated, virus-infected cells to 50% of that produced by compound-free, mock-infected cells. The 50% cytotoxic dose (CC50) was calculated as the concentration of compound that decreased the percentage of formazan produced in compound-treated, mock-infected cells to 50% of that produced by compound-free, mock-infected cells. The therapeutic index (TI) was calculated by dividing the CC50 value by the EC50 value.
(§2) All strains of human rhinovirus (HRV) for use in this assay were purchased from American Type Culture Collection (ATCC), except for HRV serotype-14 (produced from the infectious cDNA clone constructed by Dr. Robert Rueckert, Institute for Molecular Virology, University of Wisconsin, Madison, Wis.). HRV stocks were propagated and viral assays were performed in H1-HeLa cells (ATCC). Cells were grown in minimal essential medium with 10% fetal bovine serum, available from Life Technologies (Gaithersburg, Md.).

[2] = Cytotoxicity in mock-infected cells of the antirhinoviral assay (XTT); assay type: cell-based; settings: human, H1-HeLa cells, table line HRV-14
Experimental: as §1, §2

[3] = target: T1, rhinovirus 3C protease, serotype 14 (Human rhinovirus 14, UniProt P03303); assay: Inhibition of rhinovirus 3C protease (FRET assay, enzyme start); assay type: biochemical; settings: HRV-14 3C protease, progress curves, read-out: Kobs/I
T1 construct: Recombinant rhinovirus 3C proteases; made in house
Experimental: Stock solutions (50 mM, in DMSO) of various compounds were prepared; dilutions were in the same solvent. Recombinant rhinovirus 3C proteases (see Birch et al., “Purification of recombinant human rhinovirus 14 3C protease expressed in Escherichia coli,” Protein Expr. Pur. (1995), vol. 6(5), 609-618) from serotypes 14, 16, and 2 were prepared by the following standard chromatographic procedures: (1) ion exchange using Q Sepharose Fast Flow from Pharmacia; (2) affinity chromatography using Affi-Gel Blue from Biorad; and (3) sizing using Sephadex G-100 from Pharmacia. Each assay sample contained 2% DMSO, 50 mM tris pH 7.6, 1 mM EDTA, a test compound at the indicated concentration, approximately 1 μM substrate, and 50-100 nM protease. The kobs/I values were obtained from reactions initiated by addition of enzyme rather than substrate. RVP activity was measured in the fluorescence resonance energy transfer assay. The substrate was (N-terminal) DABCYL-(Gly-Arg-Ala-Val-Phe-Gln-Gly-Pro-Val-Gly)-EDANS. In the uncleaved peptide, the EDANS fluorescence was quenched by the proximal DABCYL moiety. When the peptide was cleaved, the quenching was relieved, and activity was measured as an increase in fluorescence signal. The tabulated data in the column designated kobs/[I] were measured from progress curves in enzyme start experiments.

[4] = test system: HRV-10; assay: Antirhinoviral H1-HeLa cell culture assay (XTT cell protection); assay type: cell-based; settings: Human rhinovirus sp., HRV10; HRV-10, H1-HeLa cells
Experimental: as §1, §2

[5] = test system: HRV-1A; assay: as above; assay type: cell-based, human rhinovirus; settings: Rhinovirus A, HRV1A, H1-HeLa cells
Experimental: as §1, §2

[6] = test system: H1-HeLa cells; assay: Cytotoxicity in mock-infected cells of the antirhinoviral assay (XTT); assay type: cell-based
Experimental: as §1, §2

T1 sequence (P03303 1538-1719): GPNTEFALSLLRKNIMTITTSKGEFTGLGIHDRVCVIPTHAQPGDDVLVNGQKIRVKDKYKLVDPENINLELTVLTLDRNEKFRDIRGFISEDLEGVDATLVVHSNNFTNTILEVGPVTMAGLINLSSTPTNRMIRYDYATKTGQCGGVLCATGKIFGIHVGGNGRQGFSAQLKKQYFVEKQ

EC50 [1]	kinact/KI [3]	EC50 [4]	EC50 [5]	Structure (SMILES)	CC50 at 2 days [2]	CC50 ([6]; table line HRV-1A)	CC50 ([6]; table line HRV-10)
1100 nM	12700 M⁻¹ s⁻¹			CCOC(=O)/C=C/[C@H](CCC(N)=O)NC(=O)[C@H](Cc1ccccc1)NC(=O)c1ccc(-c2cncc3ccccc23)[nH]1 [Compound 5, 6-Carbamoyl-4S-{2S-[(5-isoquinolin-4-yl-1H-pyrrole-2-carbonyl)-amino]-3-phenyl-propionylamino}-hex-2(trans)-enoic acid ethyl ester]	> 10000 nM		
1250 nM	2700 M⁻¹ s⁻¹			CCOC(=O)/C=C/[C@H](CCC(N)=O)NC(=O)[C@H](Cc1ccccc1)NC(=O)c1ccc(-c2cccc3c2OCO3)[nH]1 [Compound 12]	> 10000 nM		
27000 nM	980 M⁻¹ s⁻¹			CCOC(=O)/C=C/[C@H](CCC(N)=O)NC(=O)[C@H](Cc1ccccc1)NC(=O)c1ccc(-c2ccncc2)[nH]1 [Compound 15, 6-Carbamoyl-4S-{3-phenyl-2S-[(5-pyridin-4-yl-1H-pyrrole-2-carbonyl)-amino]-propionylamino}-hex-2(trans)-enoic acid ethyl ester]	> 100000 nM		
5720 nM	4400 M⁻¹ s⁻¹			CCOC(=O)/C=C/[C@H](CCC(N)=O)NC(=O)[C@H](Cc1ccccc1)NC(=O)c1ccc(CCC(F)(F)F)[nH]1 [Compound 22, 6-Carbamoyl-4S-(3-phenyl-2S-{[5-(3,3,3-trifluoro-propyl)-1H-pyrrole-2-carbonyl]-amino}-propionylamino)-hex-2(trans)-enoic acid ethyl ester]	> 10000 nM		
1420 nM	2130 M⁻¹ s⁻¹			CCOC(=O)/C=C/[C@H](CCC(N)=O)NC(=O)[C@H](Cc1ccccc1)NC(=O)c1ccc(-c2cccc(C(C)C)c2)[nH]1 [Compound 6, 6-Carbamoyl-4S-(2S-{[5-(3-isopropyl-phenyl)-1H-pyrrole-2-carbonyl]-amino}-3-phenyl-propionylamino)-hex-2(trans)-enoic acid ethyl ester]	> 10000 nM		
4920 nM	1300 M⁻¹ s⁻¹			CCOC(=O)/C=C/[C@H](CCC(N)=O)NC(=O)[C@H](Cc1ccccc1)NC(=O)c1ccc(-c2cccnc2)[nH]1 [Compound 8, 6-Carbamoyl-4S-{3-phenyl-2S-[(5-pyridin-3-yl-1H-pyrrole-2-carbonyl)-amino]-propionylamino}-hex-2(trans)-enoic acid ethyl ester]	> 10000 nM		
202 nM	20300 M⁻¹ s⁻¹			CCOC(=O)/C=C/[C@H](CCC(N)=O)NC(=O)[C@H](Cc1ccccc1)NC(=O)c1ccc(-c2cccc(Cl)c2Cl)[nH]1 [Compound 1]	> 10000 nM		
64 nM	32400 M⁻¹ s⁻¹			CCOC(=O)/C=C/[C@H](CCC(N)=O)NC(=O)[C@H](Cc1ccccc1)NC(=O)c1ccc(-c2ccccc2C(F)(F)F)[nH]1 [Compound 2, 6-Carbamoyl-4S-{3-phenyl-2S-[(5-(2-trifluoromethyl-phenyl)-1H-pyrrole-2-carbonyl)-amino]-propionylamino}-hex-2(trans)-enoic acid ethyl ester]	> 10000 nM		

The remaining lines, values behind:

Structure (SMILES)	EC50 [1]	kinact/KI [3]	EC50 [4]	EC50 [5]	CC50 at 2 days [2]	CC50 ([6]; table line HRV-1A)	CC50 ([6]; table line HRV-10)
CCCC[C@H](NC(=O)c1ccc(-c2ccccc2C(F)(F)F)[nH]1)C(=O)N[C@H](/C=C/C(=O)OCC)CCC(N)=O [Compound 19, 6-Carbamoyl-4S-(2S-{[5-(2-trifluoromethyl-phenyl)-1H-pyrrole-2-carbonyl]-amino}-hexanoylamino)-hex-2(trans)-enoic acid ethyl ester]	1530 nM	6650 M⁻¹ s⁻¹			> 10000 nM		
CCOC(=O)/C=C/[C@H](CCC(N)=O)NC(=O)[C@H](CC(C)C)NC(=O)c1ccc(-c2ccccc2C(F)(F)F)[nH]1 [Compound 17, 6-Carbamoyl-4S-(4-methyl-2S-{[5-(2-trifluoromethyl-phenyl)-1H-pyrrole-2-carbonyl]-amino}-pentanoylamino)-hex-2(trans)-enoic acid ethyl ester]	2190 nM	2900 M⁻¹ s⁻¹			> 10000 nM		
O=C1OCC/C1=C\[C@H](C[C@@H]1CCNC1=O)NC(=O)[C@@H](CC(=O)c1ccc(-c2cccc3ccccc23)[nH]1)Cc1ccc(F)cc1 [Compound 33, 2-(R,S)-(4-Fluorobenzyl)-4-(5-naphthalen-1-yl-1H-pyrrol-2-yl)-4-oxo-N-[2-(2-oxo-dihydro-furan-3-ylidine)-1S-(2-oxo-pyrrolidin-3S-ylmethyl)-ethyl]-butyramide]	212 nM	100000 M⁻¹ s⁻¹			> 10000 nM		
CCC[C@H](NC(=O)c1ccc(-c2ccccc2C(F)(F)F)[nH]1)C(=O)N[C@H](/C=C/C(=O)OCC)CCC(N)=O [Compound 18, 6-Carbamoyl-4S-(2S-{[5-(2-trifluoromethyl-phenyl)-1H-pyrrole-2-carbonyl]-amino}-pentanoylamino)-hex-2(trans)-enoic acid ethyl ester]	1600 nM	3140 M⁻¹ s⁻¹			> 10000 nM		
CCOC(=O)/C=C/[C@H](CCC(N)=O)NC(=O)CNC(=O)c1ccc(-c2ccccc2C(F)(F)F)[nH]1 [Compound 20, 6-Carbamoyl-4S-(2S-{[5-(2-trifluoromethyl-phenyl)-1H-pyrrole-2-carbonyl]-amino}-acetylamino)-hex-2(trans)-enoic acid ethyl ester]	16400 nM	330 M⁻¹ s⁻¹			> 100000 nM		
CCOC(=O)/C=C/[C@H](CCC(N)=O)NC(=O)[C@@H](CC(=O)c1ccc(-c2ccccc2C(F)(F)F)[nH]1)Cc1ccccc1 [Compound 40, 4S-{2R-Benzyl-4-oxo-[5-(2-trifluoromethyl-phenyl)-1H-pyrrol-2-yl]-butyrylamino}-6-carbamoyl-hex-2(trans)-enoic acid ethyl ester]	1660 nM	3180 M⁻¹ s⁻¹			> 10000 nM		
CCOC(=O)/C=C/[C@H](C[C@@H]1CCNC1=O)NC(=O)[C@H](CC)CC(=O)c1ccc(-c2ccccc2C(F)(F)F)[nH]1 [Compound 37, 4S-{2R-Ethyl-4-oxo-4-[5-(2-trifluoromethyl-phenyl)-1H-pyrrol-2-yl]-butyrylamino}-5-(2-oxo-pyrrolidin-3S-yl)-pent-2(trans)-enoic acid ethyl ester]	266 nM	26400 M⁻¹ s⁻¹			> 10000 nM		
CCOC(=O)/C=C/[C@H](C[C@@H]1CCNC1=O)NC(=O)[C@H](Cc1ccccc1)NC(=O)c1ccc(-c2ccccc2C(F)(F)F)[nH]1 [Compound 28, 5-(2-Oxo-pyrrolidin-3S-yl)-4S-(3-phenyl-2S-{[5-(2-trifluoromethyl-phenyl)-1H-pyrrole-2-carbonyl]-amino}-propionylamino)-pent-2(trans)-enoic acid ethyl ester]	59 nM	340000 M⁻¹ s⁻¹	66 nM	213 nM	> 1000 nM	> 1000 nM	> 1000 nM
CCOC(=O)/C=C/[C@H](CCC(N)=O)NC(=O)[C@H](CC)NC(=O)c1ccc(-c2ccccc2C(F)(F)F)[nH]1 [Compound 23, 6-Carbamoyl-4S-(2S-{[5-(2-trifluoromethyl-phenyl)-1H-pyrrole-2-carbonyl]-amino}-butyrlamino)-hex-2(trans)-enoic acid ethyl ester]	1550 nM	3800 M⁻¹ s⁻¹			> 10000 nM		
O=C1OCC/C1=C\[C@H](C[C@@H]1CCNC1=O)NC(=O)[C@H](Cc1ccc(F)cc1)NC(=O)c1ccc(-c2ccccc2)[nH]1 [Compound 27, 5-Phenyl-1H-pyrrole-2-carboxylic acid-{2S-(4-fluorophenyl)-1S-[1-(2-oxo-dihydrofuran-3-ylidinemethyl)-1-(2-oxo-pyrrolidin-3S-methyl)-ethylcarbamoyl]-2S-phenyl-ethyl}-amide]	1580 nM	11700 M⁻¹ s⁻¹			> 10000 nM		
